According to patent publication US20240383852A1, “ANTI-VIRAL COMPOUNDS” (INFEX Therapeutics Limited, priority 2021, published 2024):
pIC50: −log10 of the molar value. Counter-ions that a name gives are not always drawn.

Assays:
[1] = test system: human Hep G2 cells (ATCC HB-8065); assay: Cytotoxicity in Hep G2 cells (CellTiter-Glo); type: cell-based; details: Hep G2 cells, 100 μM test article, 24-hour exposure
SARS-CoV-2 PLpro = biological target: T1, SARS-CoV-2 PLpro (Severe acute respiratory syndrome coronavirus 2, UniProt P0DTD1); assay: biochemical; details: 60 nM papain-like protease, 50 μM Z-RLRGG-AMC, pH 7.5, 37° C.; read-out: SARS-CoV-2 PLpro IC50
T1 construct: containing 60 nM papain-like protease

Structure (SMILES)	% Cell Viability [1] [%]	pIC50 (SARS-CoV-2 PLpro)
Cc1ccc(N2CCN(C)CC2)cc1C(=O)N[C@H](C)c1cccc(-c2cccc(C(=O)NCCN(C)C)c2)c1 [Example 94, N-[(1R)-1-[3-[3-[2-(Dimethylamino)ethylcarbamoyl]phenyl]phenyl]ethyl]-2-methyl-5-(4-methylpiperazin-1-yl)benzamide]	17.3	> 5.70
Cc1ccc(N2CCN(C)CC2)cc1C(=O)N[C@H](C)c1cccc(-c2cccc(C(=O)N3CC[C@H](O)C3)c2)c1 [Example 95, N-[(1R)-1-[3-[3-[(3S)-3-Hydroxypyrrolidine-1-carbonyl]phenyl]phenyl]ethyl]-2-methyl-5-(4-methylpiperazin-1-yl)benzamide]	88.5	> 5.70
Cc1ccc(N2CCN(C)CC2)cc1C(=O)N[C@H](C)c1cccc(CCC(=O)NCCO)c1 [Example 96, N-[(1R)-1-[3-[3-(2-Hydroxyethylamino)-3-oxo-propyl]phenyl]ethyl]-2-methyl-5-(4-methylpiperazin-1-yl)benzamide]	97.3	> 5.00
Cc1ccc(N2CCN(C)CC2)cc1C(=O)N[C@H](C)c1cccc(-c2cccc(C(=O)NCCO)c2)c1 [Example 97, N-[(1R)-1-[3-[3-(2-Hydroxyethylcarbamoyl)phenyl]phenyl]ethyl]-2-methyl-5-(4-methylpiperazin-1-yl)benzamide]	72.1	> 5.70
Cc1ccc(N2CCN(C)CC2)cc1C(=O)N[C@H](C)c1cccc(-c2cccc(C(=O)NCCN)c2)c1 [Example 98, N-[(1R)-1-[3-[3-(2-Aminoethylcarbamoyl)phenyl]phenyl]eth-yl]-2-methyl-5-(4-methylpiperazin-1-yl)benzamide]	98.5	> 5.70
CNCCN(C)C(=O)c1cccc(-c2cccc([C@@H](C)NC(=O)c3cc(N4CCN(C)CC4)ccc3C)c2)c1 [Example 99, 2-Methyl-N-[(1R)-1-[3-[3-[methyl-[2-(methylamino)ethyl]carbamoyl]phenyl]phenyl]ethyl]-5-(4-methylpiperazin-1-yl)benzamide Hydrochloride Salt]	104.6	> 5.70
COCCNC(=O)c1cc(-c2cccc([C@@H](C)NC(=O)c3cc(N4CCN(C)CC4)ccc3C)c2)cs1 [Example 100, N-(2-Methoxyethyl)-4-[3-[(1R)-1-[[2-methyl-5-(4-methylpiperazin-1-yl)benzoyl]amino]ethyl]phenyl]thiophene-2-carboxamide]	65.9	> 5.70
Cc1ccc(N2CCN(C)CC2)cc1C(=O)N[C@H](C)c1cccc(-c2csc(C(=O)N(C)C)c2)c1 [Example 101, N,N-Dimethyl-4-[3-[(1R)-1-[[2-methyl-5-(4-methylpiperazin-1-yl)benzoyl]amino]ethyl]phenyl]thiophene-2-carboxamide]	88.1	> 5.70
Cc1ccc(N2CCN(C)CC2)cc1C(=O)N[C@H](C)c1cccc(N2CCN(C)CC2)c1 [Example 103, 2-Methyl-5-(4-methylpiperazin-1-yl)-N-[(1R)-1-[3-(4-methylpiperazin-1-yl)phenyl]ethyl]benzamide]	91.4	> 5.30
Cc1ccc(N2CCN(C)CC2)cc1C(=O)N[C@H](C)c1cccc(N2CCNCC2)c1 [Example 105, 2-Methyl-5-(4-methylpiperazin-1-yl)-N-[(1R)-1-(3-piperazin-1-ylphenyl)ethyl]benzamide]	113.3	> 5.30
Cc1ccc(N2CCN(C)CC2)cc1C(=O)N[C@H](C)c1ccc(N2CCNCC2)cc1 [Example 106, 2-Methyl-5-(4-methylpiperazin-1-yl)-N-[(1R)-1-(4-piperazin-1-ylphenyl)ethyl]benzamide]	87.4	> 5.30
Cc1ccc(N2CCN(C)CC2)cc1C(=O)N[C@H](C)c1cccc(N2CC(CO)OC2=O)c1 (stereo partly drawn) [Example 107, N-[(1R)-1-[3-[5-(Hydroxymethyl)-2-oxo-oxazolidin-3-yl]phenyl]ethyl]-2-methyl-5-(4-methylpiperazin-1-yl)benzamide]	100.7	> 5.30
Cc1ccc(N2CCNCC2)cc1C(=O)N[C@H](C)c1cccc2ccccc12 [Example 108, 2-Methyl-N-[(1R)-1-(1-naphthyl)ethyl]-5-piperazin-1-yl-benzamide]	2.1	> 5.70
CC(=O)N1CCN(c2ccc(C)c(C(=O)N[C@H](C)c3cccc4ccccc34)c2)CC1 [Example 109, 5-(4-Acetylpiperazin-1-yl)-2-methyl-N-[(1R)-1-(1-naphthyl)ethyl]benzamide]	72.9	> 5.00
Cc1ccc(N2CCN(CCO)CC2)cc1C(=O)N[C@H](C)c1cccc2ccccc12 [Example 111, 5-[4-(2-Hydroxyethyl)piperazin-1-yl]-2-methyl-N-[(1R)-1-(1-naphthyl)ethyl]benzamide]	74.8	> 5.70
Cc1ccc(N2CCN(CCO)CC2)cc1C(=O)N[C@H](C)c1cccc(-c2cnn(C)c2)c1 [Example 112, 5-[4-(2-Hydroxyethyl)piperazin-1-yl]-2-methyl-N-[(1R)-1-[3-(1-methylpyrazol-4-yl)phenyl]ethyl]benzamide]	41.0	> 5.70

Structure (SMILES)	% Cell Viability [1] [%]	pIC50 (SARS-CoV-2 PLpro)
Cc1ccc(N2CCN(CC(=O)N(C)C)CC2)cc1C(=O)N[C@H](C)c1cccc(-c2cnn(C)c2)c1 [Example 113, 5-[4-[2-(Dimethylamino)-2-oxo-ethyl]piperazin-1-yl]-2-methyl-N-[(1R)-1-[3-(1-methylpyrazol-4-yl)phenyl]ethyl]benzamide]	72.7	> 4.70
COCCN1CCN(c2ccc(C)c(C(=O)N[C@H](C)c3cccc(-c4cnn(C)c4)c3)c2)CC1 [Example 114, 5-[4-(2-Methoxyethyl)piperazin-1-yl]-2-methyl-N-[(1R)-1-[3-(1-methylpyrazol-4-yl)phenyl]ethyl]benzamide]	59.0	> 5.30
Cc1ccc(N2CCN(C3CC3)CC2)cc1C(=O)N[C@H](C)c1cccc2ccccc12 [Example 115, 5-(4-Cyclopropylpiperazin-1-yl)-2-methyl-N-[(1R)-1-(1-naphthyl)ethyl]benzamide]	26.7	> 5.70
Cc1ccc(N2CCOCC2)cc1C(=O)N[C@H](C)c1cccc2ccccc12 [Example 116, 2-Methyl-5-morpholino-N-[(1R)-1-(1-naphthyl)ethyl]benzamide]	66.6	> 5.00
Cc1ccc(N2CCN(C3COC3)CC2)cc1C(=O)N[C@H](C)c1cccc2ccccc12 [Example 117, 2-Methyl-N-[(1R)-1-(1-naphthyl)ethyl]-5-[4-(oxetan-3-yl)piperazin-1-yl]benzamide]	61.1	> 5.30
Cc1ccc(N2CCN(CC3CC3)CC2)cc1C(=O)N[C@H](C)c1cccc2ccccc12 [Example 118, 5-[4-(Cyclopropylmethyl)piperazin-1-yl]-2-methyl-N-[(1R)-1-(1-naphthyl)ethyl]benzamide]	6.6	> 5.70
Cc1ccc(N2C[C@H]3C[C@@H]2CN3C)cc1C(=O)N[C@H](C)c1cccc2ccccc12 [Example 121, 2-Methyl-5-[(1R,4R)-5-methyl-2,5-diazabicyclo[2.2.1]heptan-2-yl]-N-[(1R)-1-(naphthalen-1-yl)ethyl]benzamide]	75.1	> 5.70
Cc1ccc(N2C[C@H]3C[C@@H]2CN3C)cc1C(=O)N[C@H](C)c1cccc2c1OCO2 [Example 122, N-[(1R)-1-(1,3-benzodioxol-4-yl)ethyl]-2-methyl-5-[(1R,4R)-5-methyl-2,5-diazabicyclo[2.2.1]heptan-2-yl]benzamide]	95.4	> 5.30
Cc1ccc(N2C[C@H]3C[C@@H]2CN3C)cc1C(=O)N[C@H](C)c1cccc(Br)c1 [Example 123, N-[(1R)-1-(3-bromophenyl)ethyl]-2-methyl-5-[(1R,4R)-5-methyl-2,5-diazabicyclo[2.2.1]heptan-2-yl]benzamide]	32.9	> 5.70
Cc1ccc(N2CCN(C)CC2)c(C)c1C(=O)N[C@H](C)c1cccc2ccccc12 [Example 124, 2,6-Dimethyl-3-(4-methylpiperazin-1-yl)-N-[(1R)-1-(1-naphthyl)ethyl]benzamide]	37.4	> 5.70
Cc1ccc(N2CCN3CCCC3C2)cc1C(=O)N[C@H](C)c1cccc2ccccc12 (stereo partly drawn) [Example 125, 5-(3,4,6,7,8,8a-Hexahydro-1H-pyrrolo[1,2-a]pyrazin-2-yl)-2-methyl-N-[(1R)-1-(1-naphthyl)ethyl]benzamide hydrochloride salt]	55.8	> 5.70
Cc1ccc(N2CCN(C)C(C)C2)cc1C(=O)N[C@H](C)c1cccc2ccccc12 (stereo partly drawn) [Example 126, 5-(3,4-Dimethylpiperazin-1-yl)-2-methyl-N-[(1R)-1-(1-naphthyl)ethyl]benzamide]	62.8	> 5.70
Cc1ccc(N2CCCNCC2)cc1C(=O)N[C@H](C)c1cccc2ccccc12 [Example 128, 5-(1,4-Diazepan-1-yl)-2-methyl-N-[(1R)-1-(1-naphthyl)ethyl]benzamide]	1.1	> 5.70
Cc1ccc(N2CC[C@@H](N3CCCCC3)C2)cc1C(=O)N[C@H](C)c1cccc2ccccc12 [Example 129, 2-Methyl-N-[(1R)-1-(1-naphthyl)ethyl]-5-[(3R)-3-(1-piperidyl)pyrrolidin-1-yl]benzamide]	95.5	> 5.30
C[C@@H](NC(=O)c1cc(N2CCN(C)CC2)ccc1Cl)c1cccc2ccccc12 [Example 130, 2-Chloro-5-(4-methylpiperazin-1-yl)-N-[(1R)-1-(1-naphthyl)ethyl]benzamide]	1.0	> 5.00
